From patent US20210186972A1, “FORMULATIONS AND METHODS FOR THE PREVENTION AND TREATMENT OF TUMOR METASTASIS AND TUMORIGENESIS” (THE UNITED STATES OF AMERICA, AS REPRESENTED BY THE …, priority 2018, published 2021)

Assays:
[1] = tested on: PC3M cells overexpressing eEF1A2; test: PNC disassembly in eEF1A2-overexpressing cells; assay type: cell-based; settings: vs control vector
From the text: FIG. 39 is a graph showing that overexpression of eEF1A2 in PC3M cells increased the IC50 of metarrestin for PNC disassembly. PNC prevalence (%) is on the y-axis and the log [M] metarrestin is on the […]. eEF1A2 is shown by circles and the control vector is shown by squares.
eEF1As are multi-functional proteins, implicated in translation elongation, actin bundling, nuclear transport, and tRNA export. To evaluate whether eEF1A mediates the effect of metarrestin on cancer cells, eEF1A was either overexpressed or reduced through siRNA silencing. […] Thus, eEF1A2 enhances PNC structures, but is alone not sufficient to induce significant formation of PNCs in PNC-negative cells. To evaluate the functional link between the phenotype of metarrestin-induced PNC disassembly and eEF1A2, PNC disassembly in wild type and eEF1A2-overexpressing cancer cells was analyzed. Cells with and without over expression of eEF1A2-HA (48 hours after transfection with an efficiency at around 70%, FIGS. 61 and 64) were treated with metarrestin at 10 concentrations, and PNC prevalence was evaluated at 63× magnification. […] To evaluate whether eEF1A2 indeed regulates the metastatic phenotype, PANC1 cells with (PANC1 eEF1A2 O.E.) or without (PANC1 control) overexpression of eEF1A2 were orthotopically injected into NSG mice. Six weeks after implantation, organs were subjected to histopathological evaluation.

[2] = tested on: patient-derived breast cancer xenotransplantation model (PDX); test: Patient-derived breast cancer xenotransplantation model (PDX); assay type: in vivo; settings: 25 mg/kg IP, 5-day on and 2-day off, 4 weeks
Protocol: Metarrestin was tested in PC3M xenograft mice to determine whether metarrestin's anti-metastasis activity (observed in the NSG PANC1 mice and in vitro pan-cancer PNC suppression) translates into anti-metastasis activity in additional cancer models. Two weeks after subcutaneous implantation of PC3M cells, mice were started on 5 mg/kg or 25 mg/kg metarrestin or vehicle by daily IP injection for 4 additional weeks. Tumor progression was tracked by both in vivo imaging systems (“IVIS”) spectroscopy and tumor volume. Metastasis to the lungs was evaluated ex vivo through IVIS spectroscopy and by histopathology at the experimental endpoint. […] To evaluate the effect of metarrestin on a malignant xenograft considered closest to in vivo conditions, a patient-derived breast cancer xenotransplantation model (PDX) was used. […] Tumor size and total body weight were measured twice a week, and tumor weight was measured at experimental end-point.
Breast cancer model: The model derived from 0.2 liter of pleural effusion from a breast cancer patient (model #373342). These cancer cells had metastasized to the lung pleura from the initial tumor detected in the breast. […] Tumor size and total body weight were measured twice a week.

human cancer cell lines = test: PNC prevalence in a range of cancer cell lines; assay type: cell-based; settings: 1 μM, 24 hours, different human cancer cell lines
Protocol: FIG. 2 is a bar graph showing that 1 μM metarrestin was effective at reducing PNCs in a range of cancer cell lines (p<0.05 for PNC reduction in all cell lines; the list of cells is in Table 1 below, see also Example 2 below). The DMSO control is shown in light grey bars and metarrestin in dark grey bars. PNC prevalence (%) is on the y-axis and the cell line names are along the x-axis.
In summary, several cell types (see list below in Table 1) were treated with 1 μM (IC100 for PC3M cells) of metarrestin for 24 hours. Specifically, PC-3M cells were maintained in RPMI 1640 medium. Other cell lines including HeLa, Panel, PACADD159, PACADD183, PA-TU-8988T, KP-3, PK-8, NOR-P1, L3.6sl, Colo357, Suit-2, HP AC were maintained in DMEM with 10% FBS (GEMINI™ Bio Products) and 100 units/mL of penicillin and streptomycin. Cells were generally plated approximately 24 h before treatment with metarrestin for 5 h or 24 h at 1 μM.

SMILES: N=c1c2c(-c3ccccc3)c(-c3ccccc3)n(Cc3ccccc3)c2ncn1[C@H]1CC[C@H](O)CC1 [metarrestin]
- IC50 for PNC disassembly with increased expression of eEF1A2 [1]: increased the inhibitory concentration 50 (IC50)
- PDX growth [2]: effectively inhibited the PDX growth
- Tolerability (body weight and behavior) [2]: well-tolerated
- PNC prevalence (human cancer cell lines): reduced PNC prevalence
